From ChEMBL document CHEMBL3817781, “Identifying Interactions that Determine Fragment Binding at Protein Hotspots” (J Med Chem, 2016)

Target: T1, Pantothenate synthetase (Mycobacterium tuberculosis, UniProt P9WIL5)
T1 sequence (P9WIL5 whole entry): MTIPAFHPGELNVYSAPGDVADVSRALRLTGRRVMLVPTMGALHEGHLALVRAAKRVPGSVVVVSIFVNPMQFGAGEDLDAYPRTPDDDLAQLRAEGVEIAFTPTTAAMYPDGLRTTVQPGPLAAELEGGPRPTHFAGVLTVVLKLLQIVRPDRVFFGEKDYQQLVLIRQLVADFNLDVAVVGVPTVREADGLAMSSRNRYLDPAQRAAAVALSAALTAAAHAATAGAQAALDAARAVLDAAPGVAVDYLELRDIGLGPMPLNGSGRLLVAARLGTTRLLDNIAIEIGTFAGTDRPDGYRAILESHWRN
Experiment: Inhibition of Mycobacterium tuberculosis pantothenate synthetase expressed in Escherichia coli

For `COc1ccc2c(c1)cc(C(=O)NS(=O)(=O)Cc1ccc(C(F)(F)F)cc1)n2CC(=O)O`, the IC50 was 250 nM.
